Experimental data reported in patent US7732484B2, “Use of selective adenosine A1 receptor allosteric enhancers to manipulate angiogenesis” (University of Virginia Patent Foundation, priority 2000, dated 2010).

Columns and labels:
[1] = tested on: chicken chorioallantoic membrane (CAM); assay: CAM assay, drug applied daily on filter paper disc, vessels counted; type: in vivo; details: for angiogenic response in the CAM (vessel density at edge of disk): 100 μl daily for 7 days on filter paper disk
Experimental: Adenosine receptor subtype selective agonists stimulate angiogenesis to varying degrees in the CAM. […] In these studies, sterile filter paper disks were used to apply drug or vehicle to the CAM of eggs windowed after 7 days of incubation. The circular disk was 7 mm diameter. The agonist and antagonist drugs were delivered daily for 7 days in a volume of 100 μl placed onto the disks. On day 14 the CAMs were formalin fixed. The vessel density was determined by counting the vessels that intersected with the edge of the disks. Each bar represents data from between 13 and 19 eggs, with the exception of the bar for xanthine amine congener (XAC) which represents only four eggs. […] It is possible that some adenosine receptors may stimulate angiogenesis, while others, particularly the A2A receptor, may inhibit it. […] The 100 nM doses used should have allowed some preservation of subtype selectivity for the ligands.
Fertile White Leghorn chicken eggs are obtained from Truslow Labs (Maryland) and incubated until day 7 post-fertilization at 37° C. The eggs were automatically rotated by the incubator. On day 7 the eggs were candled to check for viability. The eggshell surface was cleaned with betadine and 70% isopropanol. A window 1.5×1.5 cm was cut into each egg over the CAM. The window was covered with clear cellophane tape and the eggs incubated at 37° C. overnight. The following day a sterile filter paper disc was applied to the CAM for the daily delivery of drugs or vehicle in a volume of 100 μl. CAMs were fixed on day 14 and vessels counted using the aforementioned method of Harris-Hooker et al.
CPA at 100 nM with or without 1 μM WRC-0571 was applied to filter paper discs on developing CAMs as described above.
Here, PD enhances the effects of endogenous adenosine on the chicken A1 receptor in the CAM. PD at a concentration of 100 μM, or vehicle, was delivered to the CAM on a filter paper disc using a protocol identical to that used for adenosine agonists. […] A small effect such as this in the absence of applied ligand or ischemia/hypoxia (which would increase the endogenous adenosine levels) is expected. Because it is a rapidly growing tissue, the CAM probably has higher levels of adenosine than more quiescent tissues, resulting in a measurable effect.

[2] = biological target: T1, human A3 over the A1 receptor (Homo sapiens, UniProt P0DMS8); details: cited from earlier work
T1 sequence (P0DMS8 1-318): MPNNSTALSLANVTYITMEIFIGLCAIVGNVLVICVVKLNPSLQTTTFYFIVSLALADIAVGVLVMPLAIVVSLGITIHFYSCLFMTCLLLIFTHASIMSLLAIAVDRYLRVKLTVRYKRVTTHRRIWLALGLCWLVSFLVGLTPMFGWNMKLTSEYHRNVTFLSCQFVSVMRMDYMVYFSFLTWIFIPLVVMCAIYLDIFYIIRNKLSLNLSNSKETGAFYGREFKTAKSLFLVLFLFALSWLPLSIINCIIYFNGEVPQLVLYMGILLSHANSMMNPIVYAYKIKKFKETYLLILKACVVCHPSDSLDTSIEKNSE

[3] = tested on: chicken chorioallantoic membrane (CAM); assay: Windowed CAM assay, Elvax pellet, vascular density index; type: in vivo; details: Elvax pellet with 3 mg adenosine, in place for seven days, 12-15 eggs per group, FIG. 5
Experimental: Fertile White Leghorn chicken eggs were obtained from Truslow Farms (Chesterfield, Mo.). Eggs were incubated at 37° for 7 days, then a 1.5 cm window was cut into each egg over the CAM. Pellets were applied to the CAMs and the windows closed with cellophane tape. Eggs were incubated until day 14 when the CAMs were fixed. […] The pellets were placed on the CAM where there were a few vessels present and were left in place for seven days. The CAMs then were fixed in 10% buffered formalin and vessels were counted under 20× magnification using a Nikon stereomicroscope. The quantitation of vascular number is presented as vascular density index VDI that was an adaptation of a method described by Harris-Hooker (Harris-Hooker et al., Neovascular Responses Induced by Cultured Aortic Endothelial Cells, J. Cell. Phys., 114, 302-310, 1983). A plastic cover slip inscribed with 4, 5, 6, and 8 mm diameter concentric circles was centered over the adenosine pellet on the formalin-fixed CAM. The vascular density was judged by counting the numbers of the vessels which intersected the circles. This technique allowed counting of vessels down to 10-12 u in diameter. The positioning of the pellets on the CAM was randomized. […] Adenosine was delivered by other means as well.

[4] = tested on: rat mesentery; assay: Rat mesentery angiogenesis, intraperitoneal Alzet osmotic pump infusion; type: in vivo; details: chronic infusion by Alzet pump into the peritoneal cavity, one week, FIG. 11
Experimental: Drug application into rat mesentery using infusion pumps. Alzet osmotic pumps were filled with drug or vehicle to a volume of 200 μl . The abdominal cavities of anesthetized 150 g Sprague-Dawley rats were incised and pumps implanted into the intraperitoneal cavity. The pumps delivered the drug at 1.0 μl/hr. After one week mesenteric samples were taken between vascular arcades along the length of the small bowel. Specimens were fixed and stained using a BS:lectin stain.
The control mesentery is shown on the left, PD 81,723—treated on the right. The chronic infusion was an advantage because the model is not an ischemic one, so steady long term administration of the PD 81,723 may help to augment the effects of lower concentrations of endogenous adenosine.

[5] = tested on: chicken chorioallantoic membrane (CAM); assay: CAM assay, drug applied daily on filter paper disc, vessels counted; type: in vivo; details: 20 nM CPA alone, FIG. 10

## CCNC(=O)[C@H]1O[C@@H](n2cnc3c(N)ncnc32)[C@H](O)[C@@H]1O [NECA]
[1]; 100 nM doses, FIG. 6
  angiogenic response in the CAM (vessel density at edge of disk): positive angiogenic response

## CCOC(=O)C1=C(C)NC(c2ccccc2)=C(C(=O)OCc2ccccc2)C1C#Cc1ccccc1 (centres unmarked) [MRS 1191]
[2]
  selectivity for the human A3 over the A1 receptor: > 1300 fold

## CCNC(=O)[C@H]1O[C@@H](n2cnc3c(N)nc(NCCc4ccc(CCC(=O)O)cc4)nc32)[C@H](O)[C@@H]1O [CGS21680]
[1]; 100 nM doses, FIG. 6
  angiogenic response in the CAM (vessel density at edge of disk): No angiogenic response

## CC(C)N(C)c1nc2c(N[C@@H]3CC4CC3CC4O)ncnc2n1C (some centres unmarked) [WRC-0571]
[1]; 1 μM WRC-0571 with 100 nM CPA, FIG. 7
  block of the angiogenic effect of CPA in the CAM: completely blocked
[1]; FIG. 8
  block of the effects of endogenous adenosine on angiogenesis in the CAM: blocked the effects of endogenous adenosine
[1]; FIG. 9
  block of C17-stimulated angiogenesis in the CAM: blocked
[1]; with PD at 100 μM, FIG. 8
  block of the effects of PD 81,723 in the CAM: completely blocked

## Nc1ncnc2c1ncn2[C@@H]1O[C@H](CO)[C@@H](O)[C@H]1O [Adenosine, adenosine]
[3]
  angiogenesis in the CAM model (vascular density index): stimulated angiogenesis

## Cc1sc(N)c(C(=O)c2cccc(C(F)(F)F)c2)c1C [PD 81,723]
[1]; 100 μM on filter paper disc versus vehicle, FIG. 8
  stimulation of angiogenesis in the CAM: 10%
[4]
  stimulation of angiogenesis in rat mesentery: Stimulation of angiogenesis

## OC[C@H]1O[C@@H](n2cnc3c(NC4CCCC4)ncnc32)[C@H](O)[C@@H]1O [CPA, Cyclopentyladenosine]
[1]; 100 nM doses, FIG. 6
  angiogenic response in the CAM (vessel density at edge of disk): positive angiogenic response
[5]
  stimulation of angiogenesis in the CAM: did not stimulate angiogenesis

## CCCn1c(=O)c2[nH]c(-c3ccc(OCC(=O)NCCN)cc3)nc2n(CCC)c1=O [XAC, xanthine amine congener]
[1]; 100 nM doses, daily for 7 days on filter paper disk, four eggs, FIG. 6
  inhibition of baseline angiogenesis in the CAM: did not inhibit baseline angiogenesis

## CNC(=O)[C@H]1O[C@@H](n2cnc3c(NCc4cccc(I)c4)ncnc32)[C@H](O)[C@@H]1O [m-MECA, N^6-iodobenzyl-5′-N-methyl-carboxamidoadenosine]
[1]; 100 nM doses, FIG. 6
  angiogenic response in the CAM (vessel density at edge of disk): positive angiogenic response
